Holding throughout (type): cell-based
The subject of assay [1] is SU86 pancreatic cancer cell line (Su.86.86). The assay is described as follows: Cell survival and adhesion assay (luciferase), SU86. To be noted: 5 hours, SU86 cells overlayed onto human mesothelial cell monolayers, read-out: relative reduction in Luciferase activity, SU86 10 μM. As to the method:
(§1) SU86 is a pancreatic cancer cell line. HT29 is a colon cancer cell line. BxPC3 is a pancreatic cell line. A2780 is an ovarian cancer cell line.
(§2) BxPc-3 and Su.86.86 pancreatic and HT-29 colon and A2780 ovarian cancer cell lines were purchased from ATCC and cultured in DMEM supplemented with 10% fetal bovine serum, glutamine, penicillin, and streptomycin. All cells were cultured at 37° C. in a humidified incubator in a 5% CO2 atmosphere. The cancer cell lines were transduced with a retrovirus containing pLuc-puro, a constitutive luciferase reporter and selected in […] media. Transient transfection of a full-length human c-FLIP construct in the vector pcDNA3 was performed as previously described. Scaife et al. Cancer Research 2002, 62: 6870-78.
(§3) Pancreatic cancer cell cultures (BxPc-3 and Su.86.86) and colon cancer (HT-29) and ovarian cancer (A2780) cells that were stably transfected with a firefly luciferase construct were transiently suspended with trypsin-PBS. 10^5 cells were overlayed onto confluent monolayers of human mesothelial cells in 96-well plates while simultaneously adding various concentrations of compounds of the invention or DMSO for 5 hours. The non-adherent cells were carefully washed away from the wells twice with 100 μl/well of blocking buffer (1% BSA in PBS) and twice again with ice-cold PBS. Adherent and surviving cells were detected by luciferase activity in a luminometer as follows. The cells were lysed in 0.1% TritonX-100, 25 mM Gly-Gly (7.8), MgSO4, 4 mM EGTA, 1 mM DTT. The total protein concentration was normalized with lysis buffer. 50 μl of cell lysate was added per well of a 96-well microtiter plate. 50 μl of luciferin substrate (Promega) was added per well and then the light output determined in a luminometer.

The test system of assay [2] is BxPC3 pancreatic cell line. The assay can be described thus: Cell survival and adhesion assay (luciferase), BxPC3. To be noted: BXPC-3, 5 hours, BxPC3 cells overlayed onto human mesothelial cell monolayers, read-out: relative reduction in Luciferase activity, BxPC3 10 μM. As to the method:
as §1, §2, §3

In assay [3] the test system is A2780 ovarian cancer cell line. The assay is described as follows: Cell survival and adhesion assay (luciferase), A2780. To be noted: 5 hours, A2780 cells overlayed onto human mesothelial cell monolayers, read-out: relative reduction in Luciferase activity, A2780 10 μM. On the procedure:
as §1, §2, §3

The subject of assay [4] is HT29 colon cancer cell line. The assay can be described thus: Cell survival and adhesion assay (luciferase), HT29. To be noted: HT-29, 5 hours, HT29 cells overlayed onto human mesothelial cell monolayers, read-out: relative reduction in Luciferase activity, HT29 10 μM. As to the method:
as §1, §2, §3

Bounds are passed on as bounds.

On to `CC(C)CNC(=O)C(C)(C)c1ccc(S(=O)(=O)/C=C/C#N)cc1` [Example 8, 2-[4-((E)-2-Cyano-ethenesulfonyl)-phenyl]-N-isobutyl-isobutyramide], for which the inhibition at 10 µM was 50 to 85% in assay [1], 50 to 85% in assay [2], 50 to 85% in assay [3] and 10 to 50% in assay [4].
Turning to `CC(C)(C)c1cc(S(=O)(=O)/C=C/C#N)ccc1OCC(=O)NCc1ccc(F)cc1` [Example 64, 2-[2-tert-Butyl-4-((E)-2-cyano-ethenesulfonyl)-phenoxy]-N-(4-fluoro-benzyl)-acetamide], the inhibition at 10 µM in assay [1] was 50 to 85%; in assay [2], more than 85%; in assay [3] it was more than 85%; in assay [4], more than 85%.
For the compound `Cc1ccc(O)c(NC(=O)C(C)(C)c2ccc(S(=O)(=O)/C=C/C#N)cc2)c1` [Example 69, 2-[4-((E)-2-Cyano-ethenesulfonyl)-phenyl]-N-(2-hydroxy-5-methyl-phenyl)-isobutyramide], the inhibition at 10 µM in assay [1] was 10 to 50%; in assay [2], 10 to 50%; in assay [3], 50 to 85%; in assay [4] it was 50 to 85%.
As for `N#C/C=C/S(=O)(=O)c1ccc(C2(C(=O)O)CC2)cc1` [Example 62, 1-[4-((E)-2-Cyano-ethenesulfonyl)-phenyl]-cyclopropanecarboxylic acid], the inhibition at 10 µM is 10 to 50% in assay [1], less than 10% in assay [2], 10 to 50% in assay [3] and less than 10% in assay [4].
Turning to `CC(C)(C(=O)NCC#Cc1ccccc1)c1ccc(S(=O)(=O)/C=C/C#N)cc1` [Example 71, 2-[4-((E)-2-Cyano-ethenesulfonyl)-phenyl]-N-(3-phenyl-prop-2-ynyl)-isobutyramide], the inhibition at 10 µM is 50 to 85% in assay [1], more than 85% in assay [2], more than 85% in assay [3] and more than 85% in assay [4].
Consider `CC(C)(C(=O)Nc1ccccc1)c1ccc(S(=O)(=O)/C=C/C#N)cc1` [Example 5, 2-[4-((E)-2-Cyano-ethenesulfonyl)-phenyl]-N-phenyl-isobutyramide], for which the inhibition at 10 µM in assay [1] is 10 to 50%; in assay [2], 50 to 85%; in assay [3] it was 50 to 85%; in assay [4], less than 10%.
For the compound `CC(C)(C(=O)NCCO)c1ccc(S(=O)(=O)/C=C/C#N)cc1` [Example 4, 2-[4-((E)-2-Cyano-ethenesulfonyl)-phenyl]-N-(2-hydroxy-ethyl)-isobutyramide], the inhibition at 10 µM was less than 10% in assay [1], less than 10% in assay [2], less than 10% in assay [3] and 10 to 50% in assay [4].
As to `C#CCCNC(=O)C(C)(C)c1ccc(S(=O)(=O)/C=C/C#N)cc1` [Example 80, N-But-3-ynyl-2-[4-((E)-2-cyano-ethenesulfonyl)-phenyl]-isobutyramide], the inhibition at 10 µM is 10 to 50% in assay [1], 50 to 85% in assay [2], 50 to 85% in assay [3] and more than 85% in assay [4].
Consider `CC(C)(C)c1ccc(S/C=C/C#N)cc1` [Example 60, (E)-3-(4-tert-Butyl-phenylsulfanyl)-acrylonitrile], for which the inhibition at 10 µM in assay [1], in assay [2], in assay [3] and in assay [4] was less than 10% each time.
As to `CC(C)(C(=O)O)c1cccc(S(=O)(=O)/C=C/C#N)c1` [Example 2, 2-[3-((E)-2-Cyano-ethenesulfonyl)-phenyl]-2-methyl-propionic acid], the inhibition at 10 µM in assay [1] is less than 10%; in assay [2] it was 10 to 50%; in assay [3], less than 10%; in assay [4], 10 to 50%.
`CC(C)(C(=O)NCC(F)F)c1ccc(S(=O)(=O)/C=C/C#N)cc1` [Example 11, 2-[4-((E)-2-Cyano-ethenesulfonyl)-phenyl]-N-(2,2-difluoro-ethyl)-isobutyramide]: the inhibition at 10 µM in assay [1] is 10 to 50%; in assay [2] it was 10 to 50%; in assay [3], 10 to 50%; in assay [4] it was less than 10%.
For `CC(C)(C(=O)NC1CCOCC1)c1ccc(S(=O)(=O)/C=C/C#N)cc1` [Example 13, 2-[4-((E)-2-Cyano-ethenesulfonyl)-phenyl]-N-(tetrahydro-pyran-4-yl)-isobutyramide], the inhibition at 10 µM is less than 10% in assay [1], less than 10% in assay [2], less than 10% in assay [3] and 10 to 50% in assay [4].
With `CC(C)(C)c1ccc2cc(S(=O)(=O)/C=C/C#N)ccc2n1` [Example 70, (E)-3-(2-tert-Butyl-quinoline-6-sulfonyl)-acrylonitrile], the inhibition at 10 µM in assay [1] was 50 to 85%; in assay [2], 50 to 85%; in assay [3], more than 85%; in assay [4], more than 85%.
As to `CC(C)(C)c1cc(S(=O)(=O)/C=C/C#N)ccc1OCC(=O)O` [Example 61, [2-tert-Butyl-4-((E)-2-cyano-ethenesulfonyl)-phenoxy]-acetic acid], the inhibition at 10 µM in assay [1] is less than 10%; in assay [2] it was 10 to 50%; in assay [3], less than 10%; in assay [4] it was less than 10%.
In the case of `CC(C)(C(=O)Nc1ccccc1O)c1ccc(S(=O)(=O)/C=C/C#N)cc1` [Example 73, 2-[4-((E)-2-Cyano-ethenesulfonyl)-phenyl]-N-(2-hydroxy-phenyl)-isobutyramide], the inhibition at 10 µM in assay [1] is 10 to 50%; in assay [2], 50 to 85%; in assay [3] it was 50 to 85%; in assay [4], more than 85%.
Regarding `CC(C)(C(=O)NCC1CC1)c1ccc(S(=O)(=O)/C=C/C#N)cc1` [Example 10], the inhibition at 10 µM in assay [1] was 10 to 50%; in assay [2] it was 10 to 50%; in assay [3] it was 50 to 85%; in assay [4], less than 10%.
For the compound `CC(C)(C(=O)N1CCOCC1)c1ccc(S(=O)(=O)/C=C/C#N)cc1` [Example 3, (E)-3-[4-(1,1-Dimethyl-2-morpholin-4-yl-2-oxo-ethyl)-benzenesulfonyl]-acrylonitrile], the inhibition at 10 µM in assay [1] is less than 10%; in assay [2], 10 to 50%; in assay [3] it was 10 to 50%; in assay [4] it was less than 10%.
With `CC(C)(C)c1cc(S(=O)(=O)/C=C/C#N)ccc1OCC(=O)NC1CCCCC1` [Example 63, 2-[2-tert-Butyl-4-((E)-2-cyano-ethenesulfonyl)-phenoxy]-N-cyclohexyl-acetamide], the inhibition at 10 µM in assay [1] is 50 to 85%; in assay [2], more than 85%; in assay [3], more than 85%; in assay [4], more than 85%.
As to `CC(C)(C(=O)NCc1cccs1)c1ccc(S(=O)(=O)/C=C/C#N)cc1` [Example 15, 2-[4-((E)-2-Cyano-ethenesulfonyl)-phenyl]-N-thiophen-2-ylmethyl-isobutyramide], the inhibition at 10 µM in assay [1] was 50 to 85%; in assay [2] it was 50 to 85%; in assay [3], more than 85%; in assay [4], less than 10%.
Consider `CC(C)(c1ccc(S(=O)(=O)/C=C/C#N)cc1)c1nnc(-c2ccccc2)o1` [Example 72, (E)-3-{4-[1-Methyl-1-(5-phenyl-[1,3,4]oxadiazol-2-yl)-ethyl]-benzenesulfonyl}-acrylonitrile], for which the inhibition at 10 µM is 50 to 85% in assay [1], 50 to 85% in assay [2], more than 85% in assay [3] and more than 85% in assay [4].
Regarding `CC(C)(c1ccc(S(=O)(=O)/C=C/C#N)cc1)c1nc2ccccc2o1` [Example 78, (E)-3-[4-(1-Benzoxazol-2-yl-1-methyl-ethyl)-benzenesulfonyl]-acrylonitrile], the inhibition at 10 µM is 50 to 85% in assay [1], 50 to 85% in assay [2], more than 85% in assay [3] and more than 85% in assay [4].
Take `CC(C)(C)c1cccc(S(=O)(=O)/C=C/C#N)c1` [Example 54, (E)-3-(3-tert-Butyl-benzenesulfonyl)-acrylonitrile]: the inhibition at 10 µM was more than 85% in assay [1], more than 85% in assay [2], more than 85% in assay [3] and less than 10% in assay [4].
On to `CC(C)(C(=O)NCc1ccc(S(N)(=O)=O)cc1)c1ccc(S(=O)(=O)/C=C/C#N)cc1` [Example 26, 2-[4-((E)-2-Cyano-ethenesulfonyl)-phenyl]-N-(4-sulfamoyl-benzyl)-isobutyramide], for which the inhibition at 10 µM in assay [1], in assay [2] and in assay [4] was less than 10% in each case.

The record behind these values is US9475766B2, “Substituted aromatic sulfur compounds and methods of their use” (Cephalon, Inc., priority 2011, dated 2016).
